This note sets out measurements from a melting point compilation (Tetko et al.; mined from patent text by program, amines drawn as free bases though some values may be those of a salt).

Structures are written as SMILES.

For the compound `CC(=O)N1CCN(C(C)=O)C1=Nc1ccc(Cl)cc1Cl`, the melting point was 113 to 115 °C.
The value for `CCOC(=O)CC(CC(=O)OCC)N1CCC(Nc2ncc3ncnc(Nc4cccc(Br)c4)c3n2)CC1` was 132 °C; that for `CC12CC3(C)CC(c4ccc(C(=O)O)cc4)(C1)CC(c1ccc(C(=O)O)cc1)(C2)C3` was 252 to 255 °C; that for `COc1cc2c(c3c1OC1(CCCC1)C3)C(c1ccccc1)=NC(C)(C)C2` was 130 to 131 °C.
As for `Cc1ccc(-c2ccc3c(c2)C=C(C(=O)Nc2ccc(CN(C)C4CCOCC4)cc2)CCS3(=O)=O)s1`, the melting point fell in the range of 229 to 231 °C.
`CC(C)(C)OC(=O)C[C@H](NC(=O)CNC(=O)CC1(c2ccc(C(N)=S)cc2)OCCO1)C(=O)N[C@@H](Cc1ccccc1)C(=O)OC(C)(C)C` yielded a melting point of 96 to 98 °C.
The compound `CCCc1nc(CO)c(C(=O)OCC)n1Cc1ccc(-c2ccccc2-c2nnnn2C(c2ccccc2)(c2ccccc2)c2ccccc2)cc1` gave a melting point of 135 to 138 °C.
The value for `COC(=O)C(=NOC(F)F)c1ccccc1COc1cc(C)ccc1C` was 61 to 65 °C.
For the compound `O=C(O)c1ccc(-c2ccc(OCCCCO)c(-c3ccc(N4CCCC4)c(C(F)(F)F)c3)c2)cc1`, the melting point is 237 °C.
The same measure for `CCN(Cc1csc(N)c1C(=O)c1ccc(Cl)cc1)c1ccccc1`: 130 to 132 °C; for `COc1ccc(C2CC(=O)N(C)C2)cc1OC` (stereo unspecified): 69 °C.
The same measure for `COc1ccc(C2=NN(C3CCN(C(=O)CN4CCN(C)CC4)CC3)C(=O)C(C)(C)C2)c2c1OC(C)(C)C2`: 121 to 123 °C.
As for `COc1cc2c(cc1C(F)(F)F)N(C(=O)Nc1ccc(OCc3ccncc3)nc1)CC2`, the melting point lay in the range of 187 to 189 °C.
Consider `COC(=O)Nc1cc(OS(=O)(=O)c2ccc(C)cc2)nc(N)n1`, for which the melting point was 188 to 190 °C.
As to `CCC1(Cl)Cc2cc(OCC(=O)O)c(Cl)c(Cl)c2C1=O` (stereo unspecified), the melting point was 185 to 187 °C.
On to `Cc1cc(Cn2[nH]c(N)cc2=O)ccc1Cl`, for which the melting point stood at 131 °C.
In turn, `NC(=O)c1cccc(O)c1F` had a melting point of 196 to 197 °C.
`CCOC(=O)c1sc(-n2ccc(OCC3CC3)cc2=O)nc1C` had a melting point of 180 to 183 °C.
In turn, `Cc1nc(NCCCO)c([N+](=O)[O-])c(N2CCc3ccccc3CC2)n1` displayed a melting point of 104 to 108 °C.
The same measure for `CCCCc1nc2c(N)nc3ccccc3c2n1CCCCC(N)=O`: 219 to 221 °C; for `CCc1nc2cnc3cc(OCc4ccccc4)ccc3c2n1CC(C)C`: 127 °C; for `COc1cc(-c2ncn(-c3cc(OC)c(OC)c(OC)c3)c2-c2ccc(N(C)C)cc2)cc(OC)c1OC`: 169 to 171 °C.
As for `Cc1sc(-c2ccccc2)nc1COc1cc(COc2ncccc2C#N)on1`, the melting point lay in the range of 135 to 136 °C.
Compound `COc1cccc(CC(O)C2CCNCC2)c1OC` (stereo unspecified) displayed a melting point of 82 to 84 °C.
`CN(C)C1(C#N)CCCCC1` displayed a melting point of 36 °C.
Consider `CCC(CC)Oc1nc(C)nc(Cc2c(C)cc(C)cc2C)c1C`, for which the melting point was in the range of 82 to 84 °C.
In the case of `Cc1cc(NC(=O)COc2ccccc2)cc(C)c1S(=O)(=O)C[N+](=O)[O-]`, the melting point lay within 166 to 167 °C.
With `CC(C#CCOc1cccc(Oc2cccnc2)c1)N(O)C(N)=O` (stereo unspecified), the melting point lay within 131 to 132 °C.
Take `CC1(C)CC(=O)c2c(ncc3[nH]c4cc(Cl)ccc4c23)C1`: the melting point was 257 to 259 °C.
For the compound `Cc1nc(N(C)C)sc1C(=O)c1ccc(Cl)c([N+](=O)[O-])c1`, the melting point was 165 to 169 °C.
`Oc1ccc(C2COc3cc(O)cc(O)c3C2)cc1` (stereo unspecified) returned a melting point of 206 to 208 °C.
Compound `CC(=O)OC1CSC(Sc2ccc3ccccc3c2)C(OC(C)=O)C1OC(C)=O` (stereo unspecified) registered a melting point of 151 °C.
The same measure for `O=C(C=Cc1ccc(F)cc1)C(=O)Nc1ccc(C(F)(F)F)cc1`: 200 to 201 °C; for `COC(=O)C1CCc2cc(C(=O)c3cccs3)c(O)cc21` (stereo unspecified): 183 to 184 °C.
The compound `O=C1c2cc(Cl)ccc2N(N2CCOCC2)C2=NCCN12` came in with a melting point of 238 to 239 °C.
As for `COc1cc2ccc([C@](O)(c3c[nH]cn3)C(C)C)cc2cc1OC`, the melting point lay in the range of 156 to 157 °C.
For the compound `COc1c(-c2ccc(O)c(O)c2)oc2cc(O)ccc2c1=O`, the melting point worked out at 281 °C.
The same measure for `COc1ccc(-c2cc3c(N4CCOCC4)nnc(N4CCOCC4)c3c(C)n2)cc1`: 206 to 209 °C; for `Cn1c(C(=O)O)cc(=O)c2oc3ccccc3c(=O)c21`: 220 °C.
As for `Nc1nc(N2CCOCC2)nc2ccccc12`, the melting point was 216 to 219 °C.
On to `CCCN(CCCc1c[nH]c2ccc(F)cc12)C1COc2ccc3ncccc3c2C1` (single isomer, unassigned; (+)), for which the melting point came out at 106 °C.
`CCN(c1ccc(C)c2cc(-c3ncc(CCl)s3)[nH]c12)S(=O)(=O)c1cccs1` yielded a melting point of 177 to 178 °C.
Take `C=CCOC(=O)c1ccc(OC(=O)C2CC3=C(C2)C(C)(C)CCC3(C)C)cc1`: the melting point lay within 48 to 50 °C.
`O=C1CN(N=Cc2ncc(-c3ccc(Cl)cc3)o2)C(=O)N1`: the melting point fell in the range of 290 to 294 °C.
The value for `CC(C)Oc1ccc(/C=C(\NC(=O)c2ccc(OCCCC3CC3)cc2)C(=O)NCCO)cc1` was 64 to 66 °C; that for `CCCCCCCCCCCCCCCCCCOc1cc(O)cc(N(CC(=O)O)CC(=O)O)c1` was 143 to 146 °C.
On to `CN(C)CCc1c[nH]c2ccc(CCS(=O)(=O)Nc3ccccc3)cc12`, for which the melting point was in the range of 144 to 146 °C.
For the compound `COc1cc(C(=O)ON=C(C)N)cc([N+](=O)[O-])c1OC`, the melting point lay in the range of 165 to 166 °C.
`COc1cc(CN2CCc3cc(OCc4ccccc4)c(OC)cc3C2)cc(OC)c1` came in with a melting point of 95 to 96 °C.
As for `O=C(Nc1cc(C(F)(F)F)ccc1N1CCCC1)c1ccncc1`, the melting point was 134 to 135 °C.
On to `O=C1CCC(N2Cc3c(CNC(=O)c4ccc(Cl)c(Cl)c4)cccc3C2=O)C(=O)N1` (stereo unspecified), for which the melting point was above 260 °C.
`COC(=O)COc1ccc(NC(=O)CCCCCOCc2ccccc2)cc1` gave a melting point of 64.6 to 67 °C.
The same measure for `COC(=O)c1ccccc1-n1c(CCl)nc2c(OC)cccc2c1=O`: 208 to 210 °C.
In the case of `O=S(=O)(Cc1cc(F)cc(F)c1)NC1CN(C(c2ccc(Cl)cc2)c2cccnc2)C1` (racemic), the melting point turned out to be 110 °C.
Take `O=[N+]([O-])c1cn(-c2cccnc2)nc1F`: the melting point was in the range of 139 to 141 °C.
On to `COC(=O)c1ccc(Cl)cc1NC(=O)CSc1ccc(NC(=O)Cc2ccccc2)cc1`, for which the melting point was 144 to 146 °C.
The same measure for `Cc1cc(CBr)cc(Oc2nc(Cl)nc(Cl)c2C(C)C)c1`: 98 to 101 °C; for `CC(C)(C)c1ccc(C2(N=C=O)CCC3(CC2)OCCO3)cc1`: 103 to 106 °C.
The compound `COC1=C(OC)C(=O)C2=C(CCC(CCOc3ccc(NC(C)=O)cc3)CC2)C1=O` displayed a melting point of 151 to 154 °C.
As for `Fc1ccccc1/C=C/c1ccc(N(c2ccccc2)c2ccccc2)cc1`, the melting point fell in the range of 114 to 115 °C.
In turn, `O=C(Nc1ccc(F)c(C(F)(F)F)c1)N1COc2cc(Oc3cc(Cl)ncn3)ccc21` registered a melting point of 188 to 191 °C.
The same measure for `CCc1oc2ccccc2c1C(=O)N(C)Cc1ccc2c(Br)c(O)ccc2c1`: 176 to 178 °C; for `O=C1NCCN1c1ccc(S(=O)(=O)Nc2ccc3[nH]ccc3c2)cc1`: 239 to 241 °C.
Turning to `COC(=O)c1ncoc1-c1cccs1`, the melting point lay in the range of 64 to 66 °C.
`O=C(NC1CC=CCC1)NS(=O)(=O)c1ccc2c(c1)CCN(C(=O)N1CCCC1)CC2` (stereo unspecified): the melting point lay in the range of 211 to 212 °C.
The value for `NCc1ccc(N2CCCN(c3ccc(CCC(=O)O)cc3)C2=O)cc1` was 229 to 231 °C.
The same measure for `Cc1cccc(CC(Cc2cccc(C)c2)C(=O)O)c1`: 86 to 88 °C; for `CN(C(=O)/C=C/c1ccco1)c1ccc(S(=O)(=O)NC2CCCCCC2)cc1`: 152 to 155 °C.
Regarding `CC(C)(C(=O)Nc1ccc(Cl)cc1)/C(F)=C/Br`, the melting point lay within 131 to 133 °C.
On to `CC(=O)OC1CSC(Oc2ccc(-c3ccsc3)nc2)C(OC(C)=O)C1OC(C)=O` (stereo unspecified), for which the melting point was 158 °C.
For `CN(CCN1CCC[C@@H](C(=O)O)C1)C1c2ccccc2CCc2ccccc21`, the melting point lay within 187 to 190 °C.
The same measure for `COC(=O)c1c(N)ncn1C1c2ccccc2CC2CCCCC21` (stereo unspecified): 155 to 159 °C; for `CN(C)c1ccc(I)nn1`: 135 °C.
The same measure for `Cc1cccc(C)c1N(CC(C)Cl)C(=O)c1ccccc1` (stereo unspecified): 106 to 109 °C; for `O=C(OCc1ccccc1)N(CCNC(=O)C(F)(F)F)CCNC(=O)C(F)(F)F`: 131 to 132 °C.
Regarding `COc1ccc(Oc2c(-c3ccc(S(C)(=O)=O)cc3)cnn(-c3cccc(Cl)c3)c2=O)cc1`, the melting point is 182 to 184 °C.
Regarding `CC1(C)SC2C(NC(=O)C(NC(=O)CBr)c3ccccc3)C(=O)N2C1c1nnn[nH]1` (stereo unspecified), the melting point was 128 to 135 °C.
On to `CN1CCC(=O)N(c2cccc3ccccc23)C1=O`, for which the melting point fell in the range of 228 to 229 °C.
The value for `O=C1CCC(N2C(=O)c3cccc(OCc4ccc(CN5CC6CCC(C5)O6)cc4)c3C2=O)C(=O)N1` (stereo unspecified) was 196 to 198 °C; that for `COc1ccc(-c2nc(-c3nccn3Cc3ccccc3)[nH]c2-c2ccc(OC)cc2)cc1` was 180 °C; that for `OC1Cc2cc(F)c(F)cc2C1` was 57 to 58 °C.
The compound `O=c1[nH]c2cc(C(F)(F)F)cc(Br)c2[nH]c1=NO` returned a melting point of 221 to 223 °C.
For the compound `C#CCn1c(=O)sc2cc(F)c(-n3c(=O)cc(C(F)(F)F)[nH]c3=O)cc21`, the melting point was 224 to 227 °C.
The value for `COc1cc(OC)nc(NC(=O)NS(=O)(=O)Nc2nc(OC)cc(OC)n2)n1` was 210 °C.
Regarding `CCOC(=O)c1cn(Cc2ccccc2)nc1OCc1ccc(OCc2nc(-c3ccco3)oc2C)c(C)c1`, the melting point fell in the range of 120 to 121 °C.
Take `COC(=O)c1ccc(-c2nnc(-c3ccc(C(F)(F)F)cc3)o2)cc1`: the melting point lay within 216 to 217 °C.

The melting point is the temperature of the solid-liquid transition.
